{"source": "patent US20030134859A1", "about": "(SANKYO COMPANY, LIMITED, priority 2000, published 2003)", "key": {"[1]": {"tested_on": "Rat white adipocytes", "test": "Stimulation of differentiation of the adipocytes (Oil Red O)", "format": "cell-based", "details": "100 nM test compound, 5 days, Oil Red O ABS550, control = 100%, blank = 0%, Table 7; for activity at 0.1 µM: Rattus norvegicus, Adipocyte, 120 h, read-out: Rate of Differentiation (%)", "outline": "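Rat white adipocytes, 5,000 cells/well, cultured 5 days in differentiation-inducing medium with test compound at final 100 nM (0.1% DMSO). Cells fixed, stained with Oil Red O, dye extracted in DMSO and read at 550 nm; differentiation rate expressed relative to vehicle control (100%) and cell-free blank (0%).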"}, "[2]": {"tested_on": "Rat white adipocytes", "test": "Inhibition of the differentiation of adipocytes (Oil Red O)", "format": "cell-based", "details": "100 nM test compound, 5 days, Oil Red O ABS550, control = 100%, blank = 0%, Table 3; for activity at 0.1 µM: Rattus norvegicus, Adipocyte, 120 h, read-out: Rate of Differentiation (%)", "outline": "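Rat white preadipocytes, 5,000 cells/well, given differentiation medium with compound at 100 nM final (0.1% DMSO) for 5 days at 37 °C. Lipid stained with Oil Red O, eluted in DMSO, read at 550 nm; differentiation % relative to DMSO control (100%) and blank (0%).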"}}}
{"compound": "O=C(Nc1ccc(-c2ccc([N+](=O)[O-])cc2)cc1)c1cc([N+](=O)[O-])ccc1Cl", "note": "[Example 9, N-[4-(4-Nitrophenyl)phenyl)-(2-chloro-5-nitrophenyl)carboxamide]", "values": [{"measurement": "activity at 0.1 µM", "setting": "[1]", "result": 116, "unit": "%"}]}
{"compound": "CCCc1ccc(NC(=O)c2cc([N+](=O)[O-])ccc2Cl)cc1", "note": "[Example 15, N-(4-Propylphenyl)-(2-chloro-5-nitrophenyl)carboxamide]", "values": [{"measurement": "activity at 0.1 µM", "setting": "[1]", "result": 124, "unit": "%"}]}
{"compound": "O=C(Nc1ccc(OC(F)(F)F)cc1)c1cc([N+](=O)[O-])ccc1Cl", "note": "[Example 18, N-(4-Trifluoromethyloxyphenyl)-(2-chloro-5-nitrophenyl)carboxamide]", "values": [{"measurement": "activity at 0.1 µM", "setting": "[1]", "result": 115, "unit": "%"}]}
{"compound": "O=C(Nc1cc([N+](=O)[O-])ccc1Cl)c1cc([N+](=O)[O-])ccc1Cl", "note": "[Example 28, N-(2-Chloro-5-nitrophenyl)-(2-chloro-5-nitrophenyl)carboxamide]", "values": [{"measurement": "activity at 0.1 µM", "setting": "[1]", "result": 111, "unit": "%"}]}
{"compound": "Cc1ccc(S(=O)(=O)Nc2ccc(NC(=O)c3cc([N+](=O)[O-])ccc3Cl)cc2)cc1", "note": "[Example 32, N-[4-(4-Methylbenzene)sulfonylaminophenyl]-(2-chloro-5-nitrophenyl)carboxamide]", "values": [{"measurement": "Rate of Differentiation (%)", "setting": "[1]", "result": 114.6, "unit": "%"}]}
{"compound": "O=C(Nc1nc2ccc([N+](=O)[O-])cc2s1)c1cc([N+](=O)[O-])ccc1Cl", "note": "[Example 34, N-(6-Nitrobenzothiazol-2-yl)-(2-chloro-5-nitrophenyl)carboxamide]", "values": [{"measurement": "activity at 0.1 µM", "setting": "[1]", "result": 140, "unit": "%"}]}
{"compound": "O=C(Nc1nc(-c2cccs2)cs1)c1cc([N+](=O)[O-])ccc1Cl", "note": "[Example 36, N-[4-(2-Thienyl)thiazol-2-yl)-(2-chloro-5-nitrophenyl)carboxamide]", "values": [{"measurement": "activity at 0.1 µM", "setting": "[1]", "result": 111, "unit": "%"}]}
{"compound": "O=C(Nc1nc(-c2ccc(Cl)c(Cl)c2)cs1)c1cc([N+](=O)[O-])ccc1Cl", "note": "[Example 43, N-[4-(3,4-Dichlorophenyl)thiazol-2-yl]-(2-chloro-5-nitrophenyl)carboxamide]", "values": [{"measurement": "activity at 0.1 µM", "setting": "[1]", "result": 118, "unit": "%"}]}
{"compound": "O=C(Nc1nccc2ccccc12)c1cc([N+](=O)[O-])ccc1Cl", "note": "[Example 59, N-(Isoquinolin-1-yl)-(2-chloro-5-nitrophenyl)carboxamide]", "values": [{"measurement": "activity at 0.1 µM", "setting": "[1]", "result": 121, "unit": "%"}]}
{"compound": "O=C(Nc1nc(Cl)cc(Cl)n1)c1cc([N+](=O)[O-])ccc1Cl", "note": "[Example 83, N-(4,6-Dichloropyrimidin-2-yl)-(2-chloro-5-nitrophenyl)carboxamide]", "values": [{"measurement": "activity at 0.1 µM", "setting": "[1]", "result": 114, "unit": "%"}]}
{"compound": "Cc1noc(NS(=O)(=O)c2ccc(NC(=O)c3cc([N+](=O)[O-])ccc3Cl)cc2)c1C", "note": "[Example 104, N-[4-[(3,4-Dimethylisoxazol-6-yl)aminosulfonyl]phenyl]-(2-chloro-5-nitrophenyl)carboxamide]", "values": [{"measurement": "activity at 0.1 µM", "setting": "[1]", "result": 115, "unit": "%"}]}
{"compound": "O=C(Nc1ccc(N2CCCCC2)cc1)c1cc([N+](=O)[O-])ccc1Cl", "note": "[Example 114, N-[4-(Piperidin-1-yl)phenyl]-(2-chloro-5-nitrophenyl)carboxamide]", "values": [{"measurement": "activity at 0.1 µM", "setting": "[1]", "result": 118, "unit": "%"}]}
{"compound": "Cc1ccc(C(=O)Nc2ccc(NC(=O)c3cc([N+](=O)[O-])ccc3Cl)cc2)cc1", "note": "[Example 121, N-[4-(4-Methylbenzoyl)aminophenyl]-(2-chloro-5-nitrophenyl)carboxamide]", "values": [{"measurement": "activity at 0.1 µM", "setting": "[1]", "result": 136, "unit": "%"}]}
{"compound": "O=C(Nc1ccc(NS(=O)(=O)c2ccccc2)cc1)c1cc([N+](=O)[O-])ccc1Cl", "note": "[Example 127, N-(4-Benzenesulfonylaminophenyl)-(2-chloro-5-nitrophenyl)carboxamide]", "values": [{"measurement": "activity at 0.1 µM", "setting": "[1]", "result": 112, "unit": "%"}]}
{"compound": "Cc1ccc2nc(NC(=O)c3cc([N+](=O)[O-])ccc3Cl)sc2c1", "note": "[Example 141, N-(6-Methybenzothiazol-2-yl)-(2-chloro-5-nitrophenyl)carboxamide]", "values": [{"measurement": "Rate of Differentiation (%)", "setting": "[1]", "result": 133.2, "unit": "%"}]}
{"compound": "CCc1ccc(S(=O)(=O)Nc2ccc(NC(=O)c3cc([N+](=O)[O-])ccc3Cl)cc2)cc1", "note": "[Example 150, N-[4-(4-Ethylbenzenesulfonylamino)phenyl]-(2-chloro-5-nitrophenyl)carboxamide]", "values": [{"measurement": "activity at 0.1 µM", "setting": "[1]", "result": 137, "unit": "%"}]}
{"compound": "O=C(Nc1ccc(S(=O)(=O)N2CCCCC2)cc1)c1cc([N+](=O)[O-])ccc1Cl", "note": "[Example 151, N-[4-(Piperidyisulfonyl)phenyl]-(2-chloro-5-nitrophenyl)carboxamide]", "values": [{"measurement": "activity at 0.1 µM", "setting": "[1]", "result": 118, "unit": "%"}]}
{"compound": "O=C(Nc1ccc(S(=O)(=O)N2CCOCC2)cc1)c1cc([N+](=O)[O-])ccc1Cl", "note": "[Example 153, N-[4-(Morpholin-4-ylsulfonyl)phenyl]-(2-chloro-5-nitrophenyl)carboxamide]", "values": [{"measurement": "activity at 0.1 µM", "setting": "[1]", "result": 110, "unit": "%"}]}
{"compound": "O=C(Nc1ccc(C(=O)N2CCCCC2)cc1)c1cc([N+](=O)[O-])ccc1Cl", "note": "[Example 159, N-[4-(Piperidylcarbonyl)phenyl]-(2-chloro-5-nitrophenyl)carboxamide]", "values": [{"measurement": "activity at 0.1 µM", "setting": "[1]", "result": 123, "unit": "%"}]}
{"compound": "CC(C)(C)c1cc(NS(=O)(=O)c2cccc(NC(=O)c3cc([N+](=O)[O-])ccc3Cl)c2)cc(C(C)(C)C)c1O", "note": "[Example 161, N-[3-[(3,5-di-tert-Butyl-4-hydroxyphenyl)aminosulfonyl]phenyl]-(2-chloro-5-nitrophenyl)carboxamide]", "values": [{"measurement": "activity at 0.1 µM", "setting": "[1]", "result": 113, "unit": "%"}]}
{"compound": "CC(C)(C)c1cc(NS(=O)(=O)c2ccc(NC(=O)c3cc([N+](=O)[O-])ccc3Cl)cc2)cc(C(C)(C)C)c1O", "note": "[Example 175, N-[4-[(3,5-di-tert-Butyl-4-hydroxyphenyl)aminosulfonyl]phenyl]-(2-chloro-5-nitrophenyl)carboxamide]", "values": [{"measurement": "activity at 0.1 µM", "setting": "[1]", "result": 114, "unit": "%"}]}
{"compound": "CCCN(CCC)c1ccc(NC(=O)c2cc([N+](=O)[O-])ccc2Cl)cc1", "note": "[Example 182, N-[4-(N,N-Dipropylamino)phenyl]-(2-chloro-5-nitrophenyl)carboxamide]", "values": [{"measurement": "activity at 0.1 µM", "setting": "[1]", "result": 122, "unit": "%"}]}
{"compound": "O=C(Nc1nc(-c2ccc([N+](=O)[O-])cc2)cs1)c1cc([N+](=O)[O-])ccc1Cl", "note": "[Example 246, N-[4-(4-Nitrophenyl)thiazol-2-yl]-(2-chloro-5-nitrophenyl)carboxamide]", "values": [{"measurement": "activity at 0.1 µM", "setting": "[1]", "result": 120, "unit": "%"}]}
{"compound": "CCOC(=O)NC(=S)Nc1ccc(-c2ccc(NC(=O)c3cc([N+](=O)[O-])ccc3Cl)cc2)cc1", "note": "[Example 251, N-[4-[4-(Ethoxycarbonylaminothiocarbonylamino)phenyl]phenyl]-(2-chloro-5-nitrophenyl)carboxamide]", "values": [{"measurement": "activity at 0.1 µM", "setting": "[2]", "result": 39.9, "unit": "%"}]}
{"compound": "O=C(Nc1ccc(-c2ccc(NC(=S)Nc3ccccc3)cc2)cc1)c1cc([N+](=O)[O-])ccc1Cl", "note": "[Example 252, N-[4-[4-(Phenylaminothiocarbonylamino)phenyl]phenyl]-(2-chloro-5-nitrophenyl)carboxamide]", "values": [{"measurement": "activity at 0.1 µM", "setting": "[2]", "result": 36.7, "unit": "%"}]}
{"compound": "O=C(Nc1ccc(-c2ccc(NC(=O)c3cc([N+](=O)[O-])ccc3Cl)cc2)cc1)Nc1ccccc1[N+](=O)[O-]", "note": "[Example 254, N-[4-[4-(2-Nitrophenylaminocarbonylamino)phenyl]phenyl]-(2-chloro-5-nitrophenyl)carboxamide]", "values": [{"measurement": "activity at 0.1 µM", "setting": "[2]", "result": 52.8, "unit": "%"}]}
{"compound": "O=C(NC(=S)NCCc1ccc(NC(=O)c2cc([N+](=O)[O-])ccc2Cl)cc1)c1ccccc1", "note": "[Example 271, N-[4-(2-Phenylcarbonylaminothiocarbonylaminoethyl)phenyl]-(2-chloro-5-nitrophenyl)carboxamide]", "values": [{"measurement": "activity at 0.1 µM", "setting": "[2]", "result": 45.4, "unit": "%"}]}
{"compound": "CCS(=O)(=O)N(c1ccc(-c2ccc(NC(=O)c3cc([N+](=O)[O-])ccc3Cl)cc2)cc1)S(=O)(=O)CC", "note": "[Example 276, N-[4-[4-(N,N-Diethanesulfonylamino)phenyl]phenyl]-(2-chloro-5-nitrophenyl)carboxamide]", "values": [{"measurement": "activity at 0.1 µM", "setting": "[2]", "result": 14.9, "unit": "%"}]}
{"compound": "N-[3-(Pyrrolidinylsulfonyl)phenyl]-(2-chloro-5-nitrophenyl)carboxamide [Example 154]", "values": [{"measurement": "Rate of Differentiation (%)", "setting": "[1]", "result": 123.8, "unit": "%"}]}
{"compound": "N-[4-(4-Methylbenzoylamino)phenyl]phenyl]-(2-chloro-5-nitrophenyl)carboxamide [Example 122]", "values": [{"measurement": "Rate of Differentiation (%)", "setting": "[2]", "result": 78.4, "unit": "%"}]}
{"compound": "N-[4-(Benzenesulfonylaminophenyl)phenyl]-(2-chloro-5-nitrophenyl)carboxamide [Example 128]", "values": [{"measurement": "Rate of Differentiation (%)", "setting": "[2]", "result": 35.4, "unit": "%"}]}
{"compound": "N-[4-[4-(Pyrrolidin-1-ylamino)phenyl]phenyl]-(2-chloro-5-nitrophenyl)carboxamide [Example 171]", "values": [{"measurement": "Rate of Differentiation (%)", "setting": "[2]", "result": 43.0, "unit": "%"}]}
